Consider seven compounds from patent publication US11174291B2, “Silstatin compounds” (Arizona Board of Regents on behalf of Arizona State …, priority 2015, dated 2021).

The test system of one data set is BXPC-3. Nature of the data set: NCI sulforhodamine B growth inhibition, pancreas cancer cells. It is filed as cell-based, human. The conditions noted are these: BXPC3 pancreas, 48 h. The procedure: (§1) Inhibition of human cancer cell growth was assessed using the National Cancer Institute's standard sulforhodamine B assay as previously described.^19In summary, cells in a 5% fetal bovine serum/RPMI1640 medium were inoculated in 96-well plates and incubated for 24 hrs. Next, serial dilutions of the compounds were added. After 48 h, the plates were fixed with trichloroacetic acid, stained with sulforhodamine B, and read with an automated microplate reader. A growth inhibition of 50% (GI50 or the drug concentration causing a 50% reduction in the net protein increase) was calcd from optical density data with Immunosoft software. Normal cells were treated in identical conditions. Normal human prostate CRL-2221 (PZ—HPV-7) was grown in MEM 10% FBS and normal human breast MCF-10A in MEGM kit.

A further data set concerns MCF-7. Put plainly: NCI sulforhodamine B growth inhibition, breast cancer cells. The conditions noted are these: MCF-7 breast, 48 h. It is filed as cell-based, human. The procedure:
as §1

In a further data set the test system is SF268. Put plainly: NCI sulforhodamine B growth inhibition, CNS cancer cells. It is filed as cell-based, human. The conditions noted are these: 48 h. The procedure:
as §1

The next data set concerns NCI-H460. Put plainly: NCI sulforhodamine B growth inhibition, lung cancer cells. It is filed as cell-based, human. The conditions noted are these: 48 h. The procedure: as §1
The next data set has as its system KM20L2. Nature of the data set: NCI sulforhodamine B growth inhibition, colon cancer cells. It is filed as cell-based, human. The conditions noted are these: 48 h. The procedure: as §1
The subject of another data set is DU-145. Nature of the data set: NCI sulforhodamine B growth inhibition, prostate cancer cells. As to conditions: DU145 prostate, 48 h. It is filed as cell-based, human. The procedure:
as §1

The test system of the next data set is MCF-10A. Nature of the data set: Sulforhodamine B growth inhibition, normal breast cells. It is filed as cell-based, human. The conditions noted are these: for Growth inhibition of human normal cell lines GI50: MCF-10A normal breast. The protocol: as §1
A further data set concerns CRL-2221 (PZ—HPV-7). Put plainly: Sulforhodamine B growth inhibition, normal prostate cells. It is filed as cell-based, human. As to conditions: for Growth inhibition of human normal cell lines GI50: CRL-2221 normal prostate. The protocol:
as §1

Data set [1] relates to mini panel of cancer cell lines. Put plainly: Growth inhibition across the mini panel of cancer cell lines. It is filed as cell-based, human. The protocol:
as §1
The growth inhibition property of the silstatins and some intermediates were evaluated against a mini panel of cancer cell lines (Table 1).

The conditions of data set [2]: amide bond; 36-membered ring; 2 steps.

Take `CC(C)C[C@H]1OC(=O)[C@H](C(C)C)NC(=O)[C@H](C)OC(=O)[C@@H](C(C)C)NC(=O)[C@@H](CC2CCCCC2)OC(=O)[C@H]([C@@H](C)O)NC(=O)[C@H](C)OC(=O)[C@@H](C(C)C)NC(=O)[C@@H](CC(C)C)OC(=O)[C@H](C(C)C)NC(=O)[C@H](C)OC(=O)[C@@H](C(C)C)NC1=O` [Silstatin 7 (18a), Cyclo-{Thr-D-Hcha-D-Val-Lac-[Val-D-Hica-D-Val-Lac]2}]: the “Growth inhibition of human cancer cell lines GI50” value in the data set on BXPC-3 was found to be 0.0038 µg/mL; in the data set with MCF-7, 0.0014 µg/mL; in the data set with SF268, 0.0031 µg/mL; in the data set on NCI-H460, 0.0032 µg/mL; in the data set with KM20L2, 0.0015 µg/mL; in the data set with DU-145 it was 0.003 µg/mL. The “Growth inhibition of human normal cell lines GI50” value with MCF-10A and in the data set on CRL-2221 (PZ—HPV-7) was 0.004 µg/mL throughout. Also, the “Cancer cell growth inhibition, assessment in words” value in data set [1] (mini panel of cancer cell lines (Table 1)) was “rescuing the activity”.
As for `CC(C)C[C@H]1OC(=O)[C@H](C(C)C)NC(=O)[C@H](C)OC(=O)[C@@H](C(C)C)NC(=O)[C@@H](CC2CCCCC2)OC(=O)[C@H]([C@@H](C)OC(=O)CCCN(C)C(=O)OCc2ccc(O[C@@H]3O[C@H](C(=O)O)[C@@H](O)[C@H](O)[C@H]3O)c([N+](=O)[O-])c2)NC(=O)[C@H](C)OC(=O)[C@@H](C(C)C)NC(=O)[C@@H](CC(C)C)OC(=O)[C@H](C(C)C)NC(=O)[C@H](C)OC(=O)[C@@H](C(C)C)NC1=O` [Silstatin 28], the “Growth inhibition of human cancer cell lines GI50” value with BXPC-3 was 0.20 µg/mL; with MCF-7, 0.031 µg/mL; in the data set with SF268 it was 0.05 µg/mL; with NCI-H460, 0.07 µg/mL; with KM20L2, 0.04 µg/mL; with DU-145, 0.13 µg/mL. The “Decrease of normal cell growth inhibition activity with respect to the parent silstatin 7 (18a)” value in the data set on MCF-10A (MCF-10A) is given as 62.5 times; with CRL-2221 (PZ—HPV-7) (CRL-2221), 12.5 times. The “Growth inhibition of human normal cell lines GI50” value is 0.25 µg/mL in the data set on MCF-10A and 0.05 µg/mL in the data set on CRL-2221 (PZ—HPV-7). For the same compound, in [1] (across the six cancer cell lines of Table 1), the “Decrease of cancer cell growth inhibition activity with respect to the parent silstatin 7” value is 16-52 times.
Take “Cyclo-{Thr(tBu)-D-Hcha-D-Val-Lac-[Val-D-Hica-D-Val-Lac]2}”: the ring closure, isolated yield in data set [2] was 48%.
On to “Cyclo-{Thr(tBu)-D-Hica-D-Val-Lac-[Val-D-Hica-D-Val-Lac]2}”, for which the ring closure, isolated yield in [2] was found to be 33%.
“Cyclo-{Tyr(tBu)-D-Hcha-D-Val-Lac-[Val-D-Hcha-D-Val-Lac]2}” gave a ring closure, isolated yield in data set [2] of 34%.
Same read-out and setting: to “Cyclo-{Tyr(tBu)-D-Hcha-D-Val-Lac-[Val-D-Hica-D-Val-Lac]2}” belongs 22%; to “Cyclo-{Tyr(tBu)-D-Hica-D-Val-Lac-[Val-D-Hica-D-Val-Lac]2}”, 11%.
